From patent publication US8173131B2, “Compositions and methods for modulating RSV infection and immunity” (PerkinElmer Health Sciences, Inc., priority 2000, dated 2012)

Tested on: RSV
Test: RSV plaque reduction assay on Vero cells (Example 1)
Assay type: cell-based, RSV/A2
Method: Dilutions of Fkn (R&D systems), SDF-1 α (R&D systems), G glycoprotein, heparin (Sigma), G glycoprotein peptides and anti-CX3CR1 antibody were made in serum-free Dulbecco's Modified Eagle's Media (DMEM; GIBCO) containing 1% BSA (Sigma) and preincubated with the Vero cells for 1 h at 37° C. 50 μg of anti-CX3CR1 antibody or heat-inactivated (56° C., 30 min) normal rabbit sera (control) were used in all experiments. […] Dilutions of RSV were made in serum-free DMEM (GIBCO) and added to pretreated Vero cells for 2 h at 37° C. Following virus infection, DMEM (GIBCO) containing 10% FBS (Hyclone, Logan, Utah) was added to the wells. Plaques were enumerated using immunostaining for F and G glycoproteins using biotinylated monoclonal antibodies 131-2A (anti-F glycoprotein) and 130-2G (anti-G glycoprotein) as described^45.
RSV plaque reduction following treatment with G glycoprotein, Fkn, G glycoprotein peptides, anti-CX3CR1 antibody, SDF-1-α and/or heparin as described in Methods. Percent inhibition was determined from the mean plaque forming units (pfu) of treated Vero cells over saline-treated Vero cells using a dilution of RSV that would produce 40-80 pfu. p-values were determined using unpaired two-tailed analysis where p<0.05 is significant. The concentration of G glycoprotein was estimated using a molecular weight of 90 kD.

SDF-1α [reference compound]
plaque inhibition (%) (1 nM): 5%
plaque inhibition (%) (10 nM): 7%
plaque inhibition (%) (100 nM): 12%
effect on RSV plaque formation / plaque number (in words): no effect on RSV plaque formation was detected
